Values after ≈ are worked out from the molar mass of the structure shown.
Legend:
[1] = Cmax in Nocardia brasiliensis HUJEG-1 infected BALB/c mouse at 25 mg/kg, sc every 8 hrs by HPLC; format: ADME, organism-based; design: dose 25 mg/kg, route subcutaneous; conditions: in vivo
[2] = Drug level in human plasma at 400 mg/day after 8 hrs; format: ADME, cell-free; conditions: read-out: Drug uptake
[3] = test system: Nocardia brasiliensis; assay: Antimicrobial activity against Nocardia brasiliensis HUJEG-1 by broth microdilution method; format: functional

Cmax [1] [ng/mL] | concentration at 8 h [2] [ng/mL] | MIC [3] [µg/mL] | SMILES
4300 | > 1000 | 0.25 (≈ 0.623 µM) | COc1c(N2C[C@@H]3CCCN[C@@H]3C2)c(F)cc2c(=O)c(C(=O)O)cn(C3CC3)c12 [MOXIFLOXACIN]
2250 |  |  | O=C(O)c1cn(C2CC2)c2cc(N3CCNCC3)c(F)cc2c1=O [CIPROFLOXACIN]

Source: ChEMBL document CHEMBL1629568 (Antimicrob Agents Chemother, 2009)
